From patent US5688773A, “Method of selectively destroying neoplastic cells” (priority 1994, dated 1997)
Where two headings read alike, the source gives them in different places.

Experiments:
C6VIK cells [1] = experiment: Ganciclovir sensitivity in vivo, subrenal capsule tumors; parameters: species or system rat; details: 20 mg/kg intraperitoneally daily; reassessed over a 16-day period; two animals
Source text: In this study, rat C6 glioma cells were used as a model primary brain tumor type. C6 cells rapidly form a non-encapsulated, non-metastatic tumor after injection into the adult rat CNS. Further, derivative cell lines are available, which lack endogenous TK activity (C6-BUI) or bear the lacZ gene (C6-BAG), which are useful experimentally. A retroviral vector was generated in which the HSV-1-TK gene is regulated by the strong, constitutive retrovirus LTR promoter. C6-BUI cells were infected with this vector and selected for TK activity by growth in HAT medium. Parental and infected cells were tested for their dose-dependent sensitivity to ganciclovir in culture and in vivo following inoculation into the rat subrenal capsule.
Ganciclovir Sensitivity in vivo: Nine rats were implanted in the subrenal capsule with C6VIK cells. Four survived the procedure for further study. Tumors were measured 5 days after implantation. Two animals were treated with ganciclovir (20 mg/kg intraperitoneally daily) and two with saline daily. Tumor size was reassessed over a 16-day period. The two control tumors grew four- to twelve-fold.
This model overcomes the problem of not being able to directly observe the size of an intracerebral tumor implant and the concerns about delivery of ganciclovir through an intact blood-brain barrier.

C6VIKWT tumors = experiment: Ganciclovir sensitivity of subcutaneous tumors in vivo; parameters: species or system nude mice
Experimental: Ganciclovir therapy was begun when tumor size reached 1 cm in diameter as measured by calipers, by intraperitoneal injections up to 25 mg/kg daily for 14 days. […] Tumor volumes were measured biweekly during treatment over a 24 day period, and were expressed as a percentage compared to the volume at the time treatment was begun.

C6VIK cells [2] = experiment: Ganciclovir sensitivity, cell proliferation assay; type: cell-based; details: Rattus norvegicus, 96 h; four-day period; read-out: Fifty percent inhibition of growth
Experimental: (§1) Ganciclovir Sensitivity Assays in Culture: To measure the sensitivity of isolated cells, cells were plated in 24-well plates at a density of 10^4 cells per well. The next day, medium was replaced with medium containing ganciclovir (Cytovene, Burroughs Wellcome) at varying concentrations (0-1 μM) in quadruplicate. Four days later, cells were harvested using trypsin and counted using a cell counter (Coulter Electronics Ltd., Luton, United Kingdom). Cell growth is expressed as the percentage of cells compared to the number of cells without treatment (100%).

C6VIKWT cells = experiment: Ganciclovir sensitivity, cell proliferation assay; type: cell-based; details: Rattus norvegicus, 96 h; four-day period; read-out: Fifty percent inhibition of growth
Experimental: as §1

[3] = tested on: C6BBAG cells co-cultured with C6VIKWT cells; experiment: Delayed co-culture, ganciclovir sensitivity of recipient colonies; type: cell-based; details: Rattus norvegicus, ratio 1:2, read-out: ganciclovir concentration at which 50% of cells grew
Experimental: Donor C6VIK or C6VIKWT cells were then added to the cultures at a ratio of 1:2 (5×10^4 recipient cells: 10^5 donor cells). Control cultures consisted of C6BAG or C6BBAG cells alone, or C6BA6 or C6BBAG cells co-plated with "donor" C6BU1 or C6BWT cells, after delay, as above. After 10 days, ganciclovir was added at varying concentrations (0-300 μM) and cells were incubated for another 9-12 days with the drug. Cells were then fixed with 0.5% glutaraldehyde and stained histochemically for beta-galactosidase activity, as described (Price et al., Proc. Natl. Acad. Sci. USA 84:1141-1145 (1987)), and colonies were counted.

[4] = tested on: C6BAG cells co-cultured with C6VIKWT cells; experiment: Simultaneous co-culture, ganciclovir sensitivity of recipient colonies; type: cell-based, rat; details: 100 μM ganciclovir; donor:recipient ratios of 0.1 and 1
Experimental: For simultaneous co-culture experiments, 10^3 recipient cells, C6BAG or C6BBAG were plated together with 10^5 C6VIK or C6VIKWT donor cells, in duplicate. Controls were C6BAG or C6BBAG cells co-plated with C6BU1 cells at a similar ratio (1:100). After seven days, ganciclovir was added at varying concentrations (0 to 300 μM) and culture was processed as above. To assess the effects of the ratio of the donor cells to recipient cells, simultaneous co-culture experiments were also done varying the ratio of the donor cell, C6VIKWT, to the recipient cell, C6BAG, from 0.1 to 100.

C6VIK cells [5] = details: subcutaneous, nude mice; cited from earlier work
C6 cells [6] = experiment: Cell proliferation assay; type: cell-based, rat; details: 0.5 mM, four days
Experimental: Cell proliferation assays: For cell proliferation assays, cells (2×10^5 per dish, unless otherwise noted) were plated onto 10 cm dishes. […] Incubations were continued for four days and cell numbers were assayed using a Coulter counter (Coulter Electronics Inc.), after harvesting in trypsinEDTA.

[7] = tested on: C6 cells co-cultured with C6-P450 cells; experiment: Co-culture assay (cell-mediated effect); type: cell-based, rat; details: 0.5 mM CPA; for inhibition at 500 µM: Rattus norvegicus, C6, 96 h, 4 days, read-out: decrease in the proliferation of C6 cells
Experimental: (§2) Co-culture assay: Co-cultures of C6-P450 and C6 cells were incubated in triplicate at different ratios (where 0, 10, 50, 90, and 100% of the cells were C6-P450 cells) to achieve a total number of 2×10^6 cells/10 cm dish. After 24 hours, 0.5 mM CPA was added and four days later, cells were counted as previously described. To compare the killing achieved by cell contact with that obtained by exposure to conditioned medium, the supernatant from each co-culture was harvested, filtered through 0.45 μm membrane filters, mixed in a 1:1 ratio with 5 mL of fresh medium and added to overnight cultures of C6 cells (2×10^6 cells/10 cm dish in triplicate). Four days later, C6 cells were washed, harvested and counted. To determine the specificity of the cell-mediated killing effect from the co-culture assays, C6 cells were incubated overnight with C6 cells that expressed the neomycin phosphotransferase gene (C6-Neo), with irradiated C6 cells, with irradiated C6-Neo, and with irradiated C6-P450 cells. γ-irradiation was performed by exposing cells to a total of 6000 rads emitted by a ^51 chromium source.

C6 cells [8] = experiment: Conditioned medium from co-cultures added to naive C6 cells; type: cell-based, rat; details: CM from co-cultures with 0, 10, or 50% P450 2B1 cells after four-day CPA
Experimental: as §2

[9] = tested on: cytochrome P450 2B1-positive cells (9L-ZP and L450-2); experiment: cells; details: Rattus norvegicus, 120 h
[10] = tested on: R450-2 (ΨCRE-derived clone, cytochrome P450 2B1); experiment: Growth in the presence of 500 μM cyclophosphamide; details: 500 μM CPA, four days
9L-ZP cells = experiment: Drug sensitivity of cultured 9L cells with or without metyrapone; details: Rattus norvegicus, 120 h

For `Nc1nc(O)c2ncn(COC(CO)CO)c2n1` [ganciclovir], the “Tumor size after treatment” value (C6VIK cells [1]) was “smaller after the treatment than before”, the Tumor growth (C6VIKWT tumors; ganciclovir for 14 days from tumor size 1 cm) was “inhibited subsequent growth completely” and the Tumor regression (C6VIKWT tumors; subcutaneous inoculation, GCV treatment) was “regression of tumors in most nude mice”. For the same compound, the IC50 (C6VIK cells [2]) was 0.01 µM, the IC50 (C6VIKWT cells) was 0.0003 µM and the IC50 [3] was 30 µM. The “ganciclovir sensitivity compared to C6BAG cells alone” value [4] was “no significant difference” and the Tumor growth (C6VIK cells [5]) was “inhibited tumor growth”.

For `O=P1(N(CCCl)CCCl)NCCCO1` (centres unmarked) [cyclophosphamide], the “Effect on cell proliferation” value (C6 cells [6]) was “had no effect”, the “Cell proliferation assay, number of cells” value (C6 cells [6]; Table V panel A) was 21.10±1.37 ×10^6 and the “Inhibition of proliferation of remaining C6 cells” value ([7]; 90% C6-P450 cells, four days) was “complete inhibition”. The inhibition at 500 µM ([7]; 10% of cells express the P450 gene) was 75%, the inhibition at 500 µM ([7]; 50% of cells contain the P450 gene) was ~85% and the “Inhibition of proliferation of C6 cells” value (C6 cells [8]) was “no inhibition”. The IC50 [9] was ~70 µM, the Cell destruction [10] was “destroyed completely” and the cytotoxicity at 1000 µM (9L-ZP cells) was > 90%.
